# Test results taken from publication PMC8591608, “DNDI-6148: A Novel Benzoxaborole Preclinical Candidate for the Treatment of Visceral Leishmaniasis” (Journal of Medicinal Chemistry, 2021).
# Where two headings read alike, the source gives them in different places.
# Assays:
# L. infantum [1] = assay: Intramacrophage L. infantum assay; assay type: cell-based; details: Leishmania infantum
# Description: (§1) L. infantum (MHOM/MA/67/ITMAP263) and L. donovani (MHOM/ET/67/L82) were maintained in the golden (Syrian) hamster (Mesocricetus auratus). Ex vivo amastigotes were collected from the spleen of an infected donor hamster using two centrifugation purification steps: 230g for 10 min, keeping the supernatant layer, and 4100g for 30 min, keeping the pellet. The spleen parasite burden was assessed using the Stauber technique.[25] For in vitro assays, the inoculum was prepared in RPMI-1640 medium, supplemented with 200 mM L-glutamine, 16.5 mM NaHCO3, and 5% inactivated fetal calf serum. For the in vivo model, an infection inoculum containing 2 × 10^7 amastigotes/100 μL was prepared in phosphate-buffered saline (PBS).
# (§2) The assay was performed in sterile 96-well microtiter plates, each well containing 10 μL of the compound dilution and 190 μL of the PMM/amastigote inoculum (3 × 10^4 cells/4.5 × 10^5 parasites per well). Parasite multiplication was compared to untreated infected controls (100% growth) and uninfected controls (0% growth). After five-day incubation, total parasite burdens were microscopically assessed after staining the cells with a 10% Giemsa solution. The results were expressed as a percentage reduction in parasite burden compared to untreated control wells. EC50 values were determined using an extended dose range (2-fold compound dilutions, 8-point concentration curve). Miltefosine was used as the reference drug.[26] For selected compounds, this assay format was also run using the L. donovani inoculum.
# L. donovani = assay: Intramacrophage L. donovani assay; assay type: cell-based; details: for EC50: Leishmania donovani
# Description: as §1, §2
# PMM cytotoxicity assay = assay type: cell-based; details: mouse, primary peritoneal mouse macrophages (PMM); for CC50 at 72 h / CC50 at 3 days: geometric mean of at least two independent tests
# Description: (§3) Primary peritoneal mouse macrophages (PMM) were collected two days after peritoneal stimulation with a 2% potato starch suspension. MRC5SV2 cells (diploid human embryonic lung fibroblasts) were cultured in minimal essential medium (MEM) containing Earle’s salts, supplemented with L-glutamine, NaHCO3, and 5% inactivated fetal calf serum. All cultures and assays were conducted at 37 °C under an atmosphere of 5% CO2.
# (§4) Assays were performed in sterile 96-well microtiter plates, each well containing 10 μL of the compound dilution and 190 μL of MRC5SV2 or PMM inoculum (3 × 10^4 cells/mL). Cell growth was compared to untreated controls (100% growth) and assay-media controls (0% growth). After three-day incubation, cell viability was assessed fluorometrically by adding resazurin (50 μL/well of a stock solution in phosphate buffer (50 μg/mL)), incubating for 4 h and measuring fluorescence (λex 550 nm, λem 590 nm). The results were expressed as a percentage reduction in cell growth compared to untreated control wells. […] Tamoxifen was included as the reference drug.
# MRC5 cytotoxicity assay = assay type: cell-based; details: human, MRC5SV2 cells (human embryonic lung fibroblasts), geometric mean of at least two independent tests
# Description: as §3, §4
# [2] = Liver microsome stability, human; assay type: in vitro ADME; details: human liver microsomes
# Description: (§5) Tests were performed by WuXi AppTec, China. Test compounds (at 1 μM) or positive controls (testosterone, propafenone, and diclofenac) were incubated at 37 °C with liver microsomes from Balb/c mouse, golden (Syrian) hamster, Sprague-Dawley rat, Beagle dog, or human in the presence of a NADPH regenerating system and phosphate buffer (100 mM, pH 7.4) at 0.4 or 0.8 mg/mL microsomal protein. The samples were removed at time intervals from 0 to 60, 90, or 120 min and immediately mixed with cold methanol supplemented or not with acid (3% formic acid) and centrifuged prior to analysis by LC-MS/MS using tolbutamide or propranolol as internal standards.
# [3] = Liver microsome stability, hamster; assay type: in vitro ADME; details: golden (Syrian), hamster liver microsomes
# Description: as §5
# L. infantum [4] = assay: L. infantum hamster model of VL; assay type: in vivo
# Description: as §1
# Female golden hamsters for the in vivo model of visceral leishmaniasis were purchased from Janvier, France (body weight 80–100 g). This study using laboratory rodents was carried out in strict accordance with all mandatory guidelines (EU directives, including the Revised Directive 2010/63/EU on the protection of Animals used for Scientific Purposes that came into force on 01/01/2013, and the declaration of Helsinki in its latest version) and was approved by the ethical committee of the University of Antwerp, Belgium (UA-ECD 2011-74). Female golden hamsters for the pharmacokinetic study were purchased from Vital River, Beijing, China. This study was conducted following institutional review and in accordance with institutional and national guidelines at WuXi AppTec (the Institutional Animal Care and Use Committee (IACUC)). Balb/c mice for the in vivo model of visceral leishmaniasis (LSHTM) were purchased from Charles River, U.K., and related studies were conducted under license PPL 70/8427 from the U.K. Home Office.
# Female golden hamsters were randomly allocated to experimental groups of six animals each, based on body weight. At the start of the experiment (Day 0), each animal was infected with L. infantum or L. donovani inoculum, delivered by intracardial injection. Six hamsters were assigned to the vehicle-treated, infected control group. Six hamsters were assigned per group (1 group/compound) for the evaluation of compound and miltefosine. […] At Day 35 (10 days after the final oral dose), all animals were euthanized and autopsies were conducted. The study evaluated the following parameters. • 1. Adverse effects: all animals were observed daily for the occurrence/presence of adverse effects. • 2. Body weight: all animals were weighed twice per week to monitor general health. • 3. Parasite burden: amastigote burdens in each target organ (liver, spleen, and bone marrow) were determined at Day 35. The organs of individual animals were weighed (except for bone marrow). Impression smears were stained with Giemsa for microscopic examination of the total amastigote burden, defined as the mean number of amastigotes per cell multiplied by the number of cells counted (minimum 500 nuclei); the results were expressed as a percentage reduction in amastigote burden compared to vehicle-treated, infected control animals.
# [5] = Hamster oral pharmacokinetic study; assay type: in vivo, golden Syrian hamsters; details: female, golden Syrian, plasma
# Description: […] The K2-EDTA anticoagulant was added to blood samples collected from 0.25 to 36 h, which were processed to plasma and stabilized with phosphoric acid (1% final) before analysis by LC-MS/MS. PK parameters were calculated using WinNonlin software (version 6.3).
# [6] = Table 4, geometric mean of at least two independent tests, read-out: intramacrophage L. infantum EC50
# [7] = Table 6, geometric mean of at least two independent tests
# [8] = pH 7.4, Table 4, read-out: HLM Clint
# [9] = pH 7.4, Table 4, read-out: HamLM Clint
# [10] = single p.o. dose 50 mg/kg, read-out: AUC0–24 after single p.o. dose of 50 mg/kg
# [11] = Table 5, geometric mean of at least two independent tests, read-out: intramacrophage L. infantum amastigote EC50
# [12] = pH 7.4, Table 5, read-out: HLM Clint
# [13] = pH 7.4, Table 5, read-out: HamLM Clint
# [14] = Table 2, geometric mean of at least three independent assays
EC50 (L. infantum [1]; [6]) [µM],EC50 (L. donovani; [7]) [µM],"microsomal CLint at 1 μM [2, 8] [µL/min/mg]","microsomal CLint at 2 h, 1 µM [3, 9] [µL/min/mg]","AUC(0-t) [5, 10] [ng·h/mL]",EC50 (L. infantum [1]; [11]) [µM],"microsomal CLint at 1 μM [2, 12] [µL/min/mg]","microsomal CLint at 2 h, 1 µM [3, 13] [µL/min/mg]",SMILES,CC50 at 72 h (PMM cytotoxicity assay; Table 4) [µM],CC50 at 3 days (PMM cytotoxicity assay; Table 6) [µM],CC50 at 3 days (MRC5 cytotoxicity assay; Table 4) [µM],"reduction in parasite burden, bone marrow, 5 days (L. infantum [4]; 25 mg/kg BID p.o. for 5 days) [%]","reduction in parasite burden, liver, 5 days (L. infantum [4]; 25 mg/kg BID p.o. for 5 days) [%]","reduction in parasite burden, spleen, 5 days (L. infantum [4]; 25 mg/kg BID p.o. for 5 days) [%]","reduction in parasite burden, bone marrow, 5 days (L. infantum [4]; 50 mg/kg BID p.o. for 5 days) [%]","reduction in parasite burden, liver, 5 days (L. infantum [4]; 50 mg/kg BID p.o. for 5 days) [%]","reduction in parasite burden, spleen, 5 days (L. infantum [4]; 50 mg/kg BID p.o. for 5 days) [%]",CC50 at 72 h (PMM cytotoxicity assay; Table 5) [µM],CC50 at 72 h (MRC5 cytotoxicity assay; Table 5) [µM],other results
1.6,1,< 11.9,41,21000,,,,"O=C(Nc1ccc2c(c1)B(O)OC2)c1cn(CC(F)(F)F)nc1C(F)(F)F [Compound 5, N-(1-Hydroxy-1,3-dihydrobenzo[c][1,2]oxaborol-6-yl)-1-(2,2,2-trifluoroethyl)-3-(trifluoromethyl)-1H-pyrazole-4-carboxamide]",50,53.8,> 64,77.0,89.7,90.0,98.0,99.7,99.2,,,
3.1,1.2,< 11.9,57,,,,,"Cc1c(C(=O)Nc2ccc3c(c2)B(O)OC3)cnn1-c1ccccn1 [Compound 16, N-(1-Hydroxy-1,3-dihydrobenzo[c][1,2]oxaborol-6-yl)-5-methyl-1-(pyridin-2-yl)-1H-pyrazole-4-carboxamide]",59,> 64,,72.2,87.8,87.7,95.1,99.6,98.5,,,"CC50 at 72 h (MRC5 cytotoxicity assay; Table 4): 61 µM; CC50 at 3 days (MRC5 cytotoxicity assay; Table 6): 61.1 µM; AUC(0-t) ([5]; study run using a single 25 mg/kg p.o. dose, read-out: AUC0–24 after single p.o. dose): 7900 ng·h/mL"
,,,,,1.7,< 11.9,82,"Cc1oc(C(=O)Nc2ccc3c(c2)B(O)OC3)cc1-c1ccccn1 [Compound 29, N-(1-Hydroxy-1,3-dihydrobenzo[c][1,2]oxaborol-6-yl)-5-methyl-4-(pyridin-2-yl)furan-2-carboxamide]",,,,,,,,,,29,45,
,,,,,0.6,< 11.9,88,"Cc1c(-c2ccccn2)csc1C(=O)Nc1ccc2c(c1)B(O)OC2 [Compound 30, N-(1-Hydroxy-1,3-dihydrobenzo[c][1,2]oxaborol-6-yl)-3-methyl-4-(pyridin-2-yl)thiophene-2-carboxamide]",,,,,,,,,,32,2.3,
,9.4,,,21000,2,,12,"O=C(Nc1ccc2c(c1)B(O)OC2)c1nnc(-c2ccccn2)o1 [Compound 31, N-(1-Hydroxy-1,3-dihydrobenzo[c][1,2]oxaborol-6-yl)-5-(pyridin-2-yl)-1,3,4-oxadiazole-2-carboxamide]",,,,55.0,67.3,69.0,99.7,99.4,99.4,,,"fold weaker against L. donovani compared with L. infantum potency (L. donovani; intramacrophage potency): about 5 fold; CC50 at 3 days (PMM cytotoxicity assay; Table 5): > 64 µM; CC50 at 3 days (MRC5 cytotoxicity assay; Table 5): > 64 µM; microsomal CLint at 2 h, 1 µM [2, 12]: 19 µL/min/mg"
,,,,,,,,"CCCCCCCCCCCCCCCCOP(=O)([O-])OCC[N+](C)(C)C [miltefosine, reference compound]",33,,> 64,,,,,,,,,"EC50 (L. infantum [1]; Table 2, geometric mean of at least three independent assays, read-out: intramacrophage L. infantum EC50): 10 µM; EC50 (L. donovani; [14]): 10 µM; EC50 at 3 days (PMM cytotoxicity assay; [14]): 33 µM"
